Results published in PubChem BioAssay AID248 (DTP/NCI, 2004).
Where “and” joins values, the source holds several entries; their conditions need not be identical. Identical values can stand only once. Toxic doses and inconclusive results are not listed.

Test system: L1210 leukemia ip in BDF1 mice, survival T/C
Assay: NCI In Vivo Anticancer Drug Screen. Data for tumor model L1210 Leukemia (intraperitoneal) in B6D2F1 (BDF1) mice
Conditions: endpoint: mean survival time, higher = longer survival
In short: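 Tumor cells were implanted, animals were treated, and survival was followed. The result divides the treated measurement by the vehicle-control measurement.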

[1] = dose: 50.0 mg/kg/injection, schedule: Q01DX009 (ip), vehicle: saline with Tween-80
[2] = dose: 100.0 mg/kg/injection, schedule: Q04DX003 (ip), vehicle: saline with Tween-80
[3] = dose: 200.0 mg/kg/injection, schedule: Q01DX009 (ip), vehicle: saline with Tween-80
[4] = dose: 200.0 mg/kg/injection, schedule: Q04DX003 (ip), vehicle: saline with Tween-80
[5] = dose: 100.0 mg/kg/injection, schedule: Q04DX003 (ip), vehicle: Klucel (hydroxypropylcellulose) (HPC)
[6] = dose: 200.0 mg/kg/injection, schedule: Q04DX003 (ip), vehicle: Klucel (hydroxypropylcellulose) (HPC)
[7] = dose: 100.0 mg/kg/injection, schedule: Q01DX009 (ip), vehicle: Klucel (hydroxypropylcellulose) (HPC)
[8] = dose: 200.0 mg/kg/injection, schedule: Q01DX009 (ip), vehicle: Klucel (hydroxypropylcellulose) (HPC)
[9] = dose: 400.0 mg/kg/injection, schedule: Q04DX003 (ip), vehicle: Klucel (hydroxypropylcellulose) (HPC)
[10] = dose: 100.0 mg/kg/injection, schedule: Q04DX003 (ip), vehicle: saline

## COc1ccc(Nc2ccnc3cc(Cl)ccc23)cc1CN(CCCl)CCCl
dose: 0.78 mg/kg/injection, schedule: Q01DX009 (ip), vehicle: saline
  T/C: 115 % of control
dose: 1.1 mg/kg/injection, schedule: Q01DX Z (ip), vehicle: methylcellulose (MC)
  T/C: 110 % of control
dose: 1.25 mg/kg/injection, schedule: Q01DX009 (ip), vehicle: Klucel (hydroxypropylcellulose) (HPC)
  T/C: 110 % of control
dose: 1.56 mg/kg/injection, schedule: Q01DX009 (ip), vehicle: saline
  T/C: 109 % of control
dose: 1.56 mg/kg/injection, schedule: Q04DX003 (ip), vehicle: saline
  T/C: 108 % of control
dose: 1.6 mg/kg/injection, schedule: Q01DX Z (ip), vehicle: methylcellulose (MC)
  T/C: 106 % of control and 118 % of control
dose: 2.4 mg/kg/injection, schedule: Q01DX Z (ip), vehicle: methylcellulose (MC)
  T/C: 117 % of control and 124 % of control
dose: 2.5 mg/kg/injection, schedule: Q01DX001 (ip), vehicle: Klucel (hydroxypropylcellulose) (HPC)
  T/C: 108 % of control
dose: 2.5 mg/kg/injection, schedule: Q01DX009 (ip), vehicle: Klucel (hydroxypropylcellulose) (HPC)
  T/C: 112 % of control
dose: 2.5 mg/kg/injection, schedule: Q04DX003 (ip), vehicle: Klucel (hydroxypropylcellulose) (HPC)
  T/C: 105 % of control
dose: 3.13 mg/kg/injection, schedule: Q01DX009 (ip), vehicle: saline
  T/C: 86 % of control
dose: 3.13 mg/kg/injection, schedule: Q04DX003 (ip), vehicle: saline
  T/C: 106 % of control
dose: 3.6 mg/kg/injection, schedule: Q01DX Z (ip), vehicle: methylcellulose (MC)
  T/C: 110 % of control and 112 % of control
dose: 5.0 mg/kg/injection, schedule: Q01DX001 (ip), vehicle: Klucel (hydroxypropylcellulose) (HPC)
  T/C: 107 % of control
dose: 5.0 mg/kg/injection, schedule: Q04DX003 (ip), vehicle: Klucel (hydroxypropylcellulose) (HPC)
  T/C: 106 % of control
dose: 10.0 mg/kg/injection, schedule: Q01DX001 (ip), vehicle: Klucel (hydroxypropylcellulose) (HPC)
  T/C: 103 % of control
dose: 10.0 mg/kg/injection, schedule: Q04DX003 (ip), vehicle: Klucel (hydroxypropylcellulose) (HPC)
  T/C: 105 % of control
dose: 50.0 mg/kg/injection, schedule: Q01DX001 (ip), vehicle: carboxymethylcellulose (CMC)
  T/C: 106 % of control

## O=[N+]([O-])c1ccc(P(=O)(Nc2ccc(Cl)cc2)Nc2ccc(Cl)cc2)cc1
dose: 75.0 mg/kg/injection, schedule: Q01DX001 (ip), vehicle: saline
  T/C: 86 % of control
dose: 150.0 mg/kg/injection, schedule: Q01DX001 (ip), vehicle: saline
  T/C: 86 % of control
dose: 300.0 mg/kg/injection, schedule: Q01DX001 (ip), vehicle: saline
  T/C: 91 % of control

## COc1cc2c3c(c1)/C(=N\N)CCN3CCC2
dose: 12.5 mg/kg/injection, schedule: Q01DX009 (ip), vehicle: saline with Tween-80
  T/C: 90 % of control
dose: 25.0 mg/kg/injection, schedule: Q01DX009 (ip), vehicle: saline with Tween-80
  T/C: 94 % of control
[1]
  T/C: 92 % of control
[2]
  T/C: 92 % of control
[3]
  T/C: 99 % of control
[4]
  T/C: 103 % of control

## CC(=O)OCC1OC(n2cc(C(F)(F)F)c(=O)[nH]c2=O)CC1OC(C)=O (stereo not given)
dose: 20.0 mg/kg/injection, schedule: Q01DX009 (oral), vehicle: saline
  T/C: 116 % of control
dose: 20.0 mg/kg/injection, schedule: Q01DX011 (ip), vehicle: saline
  T/C: 116 % of control
dose: 40.0 mg/kg/injection, schedule: Q01DX009 (oral), vehicle: saline
  T/C: 116 % of control
dose: 40.0 mg/kg/injection, schedule: Q01DX011 (ip), vehicle: saline
  T/C: 118 % of control
dose: 45.0 mg/kg/injection, schedule: Q01DX Z (oral), vehicle: saline
  T/C: 105 % of control
dose: 65.0 mg/kg/injection, schedule: Q01DX Z (oral), vehicle: saline
  T/C: 87 % of control
dose: 80.0 mg/kg/injection, schedule: Q01DX009 (oral), vehicle: saline
  T/C: 118 % of control
dose: 80.0 mg/kg/injection, schedule: Q01DX011 (ip), vehicle: saline
  T/C: 122 % of control
dose: 100.0 mg/kg/injection, schedule: Q01DX Z (oral), vehicle: saline
  T/C: 109 % of control
dose: 150.0 mg/kg/injection, schedule: Q01DX011 (oral), vehicle: saline
  T/C: 168 % of control
dose: 160.0 mg/kg/injection, schedule: Q01DX009 (oral), vehicle: saline
  T/C: 155 % of control
dose: 160.0 mg/kg/injection, schedule: Q01DX011 (ip), vehicle: saline
  T/C: 159 % of control
dose: 300.0 mg/kg/injection, schedule: Q01DX011 (oral), vehicle: saline
  T/C: 153 % of control
dose: 480.0 mg/kg/injection, schedule: Q01DX Z (ip), vehicle: saline
  T/C: 115 % of control

## CN(C)N=Nc1ccc(C(=O)N/N=C/c2ccc(Cl)cc2)cc1
dose: 50.0 mg/kg/injection, schedule: Q04DX003 (ip), vehicle: Klucel (hydroxypropylcellulose) (HPC)
  T/C: 99 % of control
[5]
  T/C: 97 % of control
[6]
  T/C: 103 % of control

## Cc1cc(C(=O)O)cc(C)c1NC(=O)N(CCCl)N=O
dose: 46.0 mg/kg/injection, schedule: Q01DX001 (ip), vehicle: other
  T/C: 91 % of control
dose: 62.0 mg/kg/injection, schedule: Q01DX001 (ip), vehicle: other
  T/C: 90 % of control

## O=C(Nc1ccc([N+](=O)[O-])cc1Cl)SCc1ccccc1
dose: 100.0 mg/kg/injection, schedule: Q01DX001 (ip), vehicle: Klucel (hydroxypropylcellulose) (HPC)
  T/C: 96 % of control
[7]
  T/C: 94 % of control and 101 % of control
dose: 100.0 mg/kg/injection, schedule: Q04DX002 (ip), vehicle: Klucel (hydroxypropylcellulose) (HPC)
  T/C: 95 % of control and 105 % of control
[5]
  T/C: 92 % of control
dose: 200.0 mg/kg/injection, schedule: Q01DX001 (ip), vehicle: Klucel (hydroxypropylcellulose) (HPC)
  T/C: 96 % of control
[8]
  T/C: 97 % of control and 106 % of control
dose: 200.0 mg/kg/injection, schedule: Q04DX002 (ip), vehicle: Klucel (hydroxypropylcellulose) (HPC)
  T/C: 103 % of control and 105 % of control
[6]
  T/C: 95 % of control
dose: 400.0 mg/kg/injection, schedule: Q01DX001 (ip), vehicle: Klucel (hydroxypropylcellulose) (HPC)
  T/C: 96 % of control
dose: 400.0 mg/kg/injection, schedule: Q04DX002 (ip), vehicle: Klucel (hydroxypropylcellulose) (HPC)
  T/C: 94 % of control and 95 % of control
[9]
  T/C: 92 % of control

## CCOc1ccc(NC(=O)OC/C=C/c2ccccc2)cc1
[1]
  T/C: 96 % of control
dose: 100.0 mg/kg/injection, schedule: Q01DX009 (ip), vehicle: saline with Tween-80
  T/C: 93 % of control
[3]
  T/C: 90 % of control

## COc1c(NC(=O)c2ccccc2Cl)cccc1[N+](=O)[O-]
dose: 25.0 mg/kg/injection, schedule: Q01DX009 (ip), vehicle: Klucel (hydroxypropylcellulose) (HPC)
  T/C: 100 % of control
dose: 50.0 mg/kg/injection, schedule: Q01DX009 (ip), vehicle: Klucel (hydroxypropylcellulose) (HPC)
  T/C: 88 % of control
[7]
  T/C: 91 % of control and 92 % of control

## c1ccc(-c2csnn2)cc1
dose: 200.0 mg/kg/injection, schedule: Q01DX001 (ip), vehicle: carboxymethylcellulose (CMC)
  T/C: 91 % of control
dose: 400.0 mg/kg/injection, schedule: Q01DX001 (ip), vehicle: carboxymethylcellulose (CMC)
  T/C: 115 % of control

## Cc1cc(Cl)c(Cl)cc1NC(=O)/C=C\c1ccccc1
[7]
  T/C: 114 % of control
[5]
  T/C: 91 % of control
[8]
  T/C: 108 % of control
[6]
  T/C: 94 % of control
dose: 400.0 mg/kg/injection, schedule: Q01DX009 (ip), vehicle: Klucel (hydroxypropylcellulose) (HPC)
  T/C: 102 % of control
[9]
  T/C: 97 % of control

## CC(=O)c1cc(N)ccc1SC#N
dose: 5.0 mg/kg/injection, schedule: Q01DX009 (ip), vehicle: saline with Tween-80
  T/C: 102 % of control
dose: 5.0 mg/kg/injection, schedule: Q04DX003 (ip), vehicle: saline with Tween-80
  T/C: 101 % of control
dose: 10.0 mg/kg/injection, schedule: Q01DX009 (ip), vehicle: saline with Tween-80
  T/C: 96 % of control
dose: 10.0 mg/kg/injection, schedule: Q04DX003 (ip), vehicle: saline with Tween-80
  T/C: 101 % of control
dose: 20.0 mg/kg/injection, schedule: Q01DX009 (ip), vehicle: saline with Tween-80
  T/C: 100 % of control
dose: 20.0 mg/kg/injection, schedule: Q04DX003 (ip), vehicle: saline with Tween-80
  T/C: 103 % of control

## O=C1CCC(CC2CCCCC2)CC1
[2]
  T/C: 100 % of control
[4]
  T/C: 95 % of control

## NC(N)=Nc1ccc(S(=O)(=O)O)cc1
[10]
  T/C: 103 % of control
dose: 200.0 mg/kg/injection, schedule: Q04DX003 (ip), vehicle: saline
  T/C: 105 % of control
dose: 400.0 mg/kg/injection, schedule: Q04DX003 (ip), vehicle: saline
  T/C: 103 % of control

## CNC(C)Cc1ccccc1OC (stereo not given)
dose: 25.0 mg/kg/injection, schedule: Q04DX003 (ip), vehicle: saline
  T/C: 103 % of control
dose: 50.0 mg/kg/injection, schedule: Q04DX003 (ip), vehicle: saline
  T/C: 101 % of control
[10]
  T/C: 92 % of control
